Laboratory results from patent publication US20100056623A1, “FUMAGILLOL DERIVATIVES OR METHOD FOR PREPARATION OF FUMAGILLOL DERIVATIVES, AND PHARMACEUTICAL COMPOSITIONS COMPRISING THE SAME” (CHONG KUN DANG PHARMACEUTICAL CORP., priority 2005, published 2010).
Like-named read-outs stand apart in the source and are kept apart here.

Legend:
[1] = Chemical stability test (HPLC purity); conditions: for 1 month Other peaks (%) / 1 month Parent peak (%) / Initial Other peaks (%) / Initial Parent peak (%): HPLC; for 1 month Other peaks (%) / 1 month Parent peak (%) / change of purity (in words) / chemical stability compared to known compounds: 1 month at 40±2° C.; for 1 month Other peaks (%) / 1 month Parent peak (%) / change of purity (%) / change of purity (in words) / chemical stability compared to known compounds: 75±5% relative humidity; for 1 month Other peaks (%) / 1 month Parent peak (%): air-tight vessel; for change of purity (%): initial vs 1 month at 40±2° C.
Protocol: Each compound of the present invention was kept in an air-tight vessel for 1 month at 40±2° C. and 75±5% of relative humidity. Thereafter the HPLC purity test was executed.
25 mL of the solution was precisely taken, and poured into 100 mL volumetric flask. Acetonitrile/20 mM ammonium acetate aqueous solution (50:50) was added thereto to be the total volume of 100 ml. The solution was filtrated, and the filtrate was used as a test liquid.
(2) Operational Condition of Instrument. • Column: Kromasil®C18 (UG 100 Å, 5 μm, 4.6 mm Φ×250 mm) • Column temperature: 30° C. • Mobil phase: 20 mM ammonium acetate (pH 4.2) buffer:acetonitrile (55:45) • Injection volume: 20 μL • Flow rate: 1.2 mL/min • Detector: UV light-absorption Spectrophotometer (detection wavelength: 306 nm)

Solubility test = assay type: physicochemical; conditions: ordinary temperature
Protocol: To a constant amount (400 mg) of each compounds of present invention, a constant amount of demineralized water, methanol and ethanol were added separately, and the solution was stirred at ordinary temperature.

L5178Y lymphoma = experiment: Inhibiting activity on cell proliferation, MTT analysis (L5178Y); assay type: cell-based, murine; conditions: L5178Y lymphoma cells, 3 days with drug
Protocol: (§1) In order to compare the safety index (SI) of CPAE (calf pulmonary artery endothelial cell) with that of HUVEC (human umbilical vein endothelial cell), L5178Y lymphoma that was isolated from murine thymus was used. The safety index was defined as IC50 ratio of L5178Y against CPAE (IC50L5178Y/IC50CPAE). All cell lines, which had been kept in liquid nitrogen tank, were used after being thawed and subcultured 2˜3 times in T-flask. CPAE, HUVEC and L5178Y were cultured in MEM culture medium (20% FBS, 50˜100 μg/ml ECGS, 0.15% baking soda, 0.05 mg/ml gentamicin), M199 culture medium (20% FBS, 0.22% baking soda, 100 μg/ml heparin, 3 ng/ml bFGF, 0.05 mg/ml gentamicin) and RPMI 1640 culture medium (10% FBS, 0.2% baking soda, 0.05 mg/ml gentamicin), respectively, under the condition of 37° C. and 5% CO2.
(§2) The drug was prepared by being gradationally diluted to two or ten times by using PBS, 20 μl of the solution was added to each well of 96 well plate in triplicate. The cell, which is being incubated, was treated with trypsin to give cell suspension. The number of cell thereafter was counted. And 180 μl of the solution was inoculated to each well and cultured.
The tumor cell was cultured with drugs for 3 days and then 50 μl of MTT (3-(4,5-dimethylthiazole-2-yl)-2,5-diphenyl tetrazolium bromide, Sigma Chemical Co.) solution (2.5 mg/ml in PBS) was added thereto. And it was further cultured for 4 hours at 37° C. Culture medium was removed carefully. And after dissolving formazan crystal by adding 150 μl of DMSO, the absorbance at 570 nm was determined.

[2] = test system: CPAE (calf pulmonary artery endothelial cell); experiment: Inhibiting activity on cell proliferation, SRB analysis (CPAE); assay type: cell-based; conditions: for IC50: CPAE cells, 3 days with drug, SRB, read-out: IC50 (nM) CAPE; for Selectivity Index (L5178Y/CAPE): IC50 L5178Y / IC50 CPAE
Protocol: as §1, §2
(§3) The cell was cultured with drugs for 3 days and then 50 μl of 50% TCA was added thereto (final concentration 10%). Subsequently the cell was fixed by being left alone at 4° C. for 1 hour. The well was washed 4 times by distilled water and then dried. After that 100 μl of SRB (Sulforhodamine B, Sigma Chemical Co.) solution (0.4% w/v in 1% acetic acid) was added thereto and then it was left alone at ordinary temperature for 30 minutes. Thereafter the well was washed 4 times by 1% acetic acid and dried. And then after adding 200 μl of 10 mM tris buffer, the absorbance at 570 nm was measured by automatic microplate reader (Model: Elx 808, Bio-Tek Instrument, INC). The viability was calculated from the ratio of the absorbance of the control to which drugs were not added and the well to which drugs were added.

[3] = test system: HUVEC (human umbilical vein endothelial cell); experiment: Inhibiting activity on cell proliferation, SRB analysis (HUVEC); assay type: cell-based; conditions: Homo sapiens, 72 h, HUVEC cells, 3 days with drug
Protocol: as §1, §2, §3

[4] = Bos taurus, Endothelial cell, 72 h

Row | Compound | 1 month Other peaks (%) [1] | 1 month Parent peak (%) [1] | Initial Other peaks (%) [1] | Initial Parent peak (%) [1] | change of purity (%) [1] | The amount of solvent to dissolve 1 g of the compounds (ml), demineralized water (Solubility test) | The amount of solvent to dissolve 1 g of the compounds (ml), ethanol (Solubility test) | The amount of solvent to dissolve 1 g of the compounds (ml), methanol (Solubility test) | IC50 (L5178Y lymphoma) | IC50 [2] | change of purity (in words) [1] | chemical stability compared to known compounds [1] | IC50 (L5178Y lymphoma; Mus musculus, 72 h) | IC50 [2, 4] | Selectivity Index (L5178Y/CAPE) [2] | effect compared to CKD-731 against CPAE ([2]; relative to CKD-731) | IC50 [3]
1 | COc1cc(C=CC(=O)OC2CCC3(CO3)C(C3(C)OC3CC=C(C)C)C2OC)cc(OC)c1OC (stereo not shown) [CKD-731, O-(3,4,5-trimethoxycinnamoyl)fumagillol, reference compound] | 2.9% | 97.1% | 1.1% | 98.9% | 1.8% | 1567 mL | 372 mL | 350 mL | 58200 nM | 0.0044 nM | – | – | – | – | – | – | –
2 | CO[C@@H]1[C@H](OC(=O)/C=C/c2ccc(OCCO)cc2)CC[C@]2(CO2)[C@H]1[C@@]1(C)O[C@@H]1CC=C(C)C [Example 1, O-(4-(2-hydroxyethoxy)cinnamoyl)fumagillol] | 0.6% | 99.4% | 0.6% | 99.4% | 0% | 135 mL | 55 mL | 34 mL | – | – | hardly showed a change of purity | more excellent chemical stability than TNP-470, CKD-732 and CKD-731 | 15500 nM | 0.0025 nM | 6.22 × 10^6 | equivalent or not smaller than twice effect of CKD-731 | –
3 | CO[C@@H]1[C@H](OC(=O)/C=C/c2ccc(Oc3ccc(CO)cc3)cc2)CC[C@]2(CO2)[C@H]1[C@@]1(C)O[C@@H]1CC=C(C)C [Example 8, O-(4-(4-hydroxymethylphenoxy)cinnamoyl)fumagillol] | – | – | – | – | – | – | – | – | – | – | – | – | 60200 nM | 0.857 nM | 7.03 × 10^4 | – | 0.00456 nM
4 | COc1cc(/C=C/C(=O)O[C@@H]2CC[C@]3(CO3)[C@@H]([C@@]3(C)O[C@@H]3CC=C(C)C)[C@@H]2OC)cc(OC)c1Oc1ccc(CO)cc1 [Example 9, O-(3,5-dimethoxy-4-(4-hydroxymethylphenoxy)cinnamoyl)fumagillol] | – | – | – | – | – | – | – | – | – | – | – | – | 61200 nM | 0.811 nM | 7.54 × 10^4 | – | 0.00361 nM
5 | COc1cc(/C=C/C(=O)O[C@@H]2CC[C@]3(CO3)[C@@H]([C@@]3(C)O[C@@H]3CC=C(C)C)[C@@H]2OC)ccc1Oc1ccc(CO)cc1 [Example 10, O-(4-(4-hydroxymethylphenoxy)-3-methoxycinnamoyl)fumagillol] | – | – | – | – | – | – | – | – | – | – | – | – | 42500 nM | 0.711 nM | 6.00 × 10^4 | – | –
6 | COc1ccc(/C=C/C(=O)O[C@@H]2CC[C@]3(CO3)[C@@H]([C@@]3(C)O[C@@H]3CC=C(C)C)[C@@H]2OC)cc1Oc1ccc(CO)cc1 [Example 11, O-(3-(4-hydroxymethylphenoxy)-4-methoxycinnamoyl)fumagillol] | – | – | – | – | – | – | – | – | – | – | – | – | 75000 nM | 0.655 nM | 1.15 × 10^5 | – | 0.0036 nM
7 | CO[C@@H]1[C@H](OC(=O)/C=C/c2ccc(OCCOCCO)cc2)CC[C@]2(CO2)[C@H]1[C@@]1(C)O[C@@H]1CC=C(C)C [Example 12, O-(4-(2-hydroxyethoxyethoxy)cinnamoyl)fumagillol] | 0.6% | 99.4% | 0.5% | 99.5% | 0.1% | 126 mL | 51 mL | 35 mL | – | – | hardly showed a change of purity | more excellent chemical stability than TNP-470, CKD-732 and CKD-731 | 20500 nM | 0.019 nM | 1.08 × 10^6 | – | –
